Test results published in US12421254B2, “KRAS modulators and uses thereof” (Quanta Therapeutics, Inc., priority 2023, dated 2025).
pIC50: −log10 of the molar value.

Columns and labels:
[1] = target: GST-tagged KRAS-G12D (2-169) (Homo sapiens, UniProt P01116, G12D); assay: Nucleotide exchange assay (NEA), SOS-mediated, HTRF, KRAS G12D; type: biochemical; details: Table 4; IC50 extracted at 30 min; 20 nM SOScat; read-out: NEA G12D IC50
Summary of the method: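 Compound preincubated 1 h at RT with 0.25 nM GST-KRAS-G12D (2-169) and anti-GST Tb donor, then 20 nM SOS1cat (564-1049) and 150 nM GTP-DY-647P1 added; pH 7.3 HEPES buffer with MgCl2 and DTT. HTRF monitored at RT; % inhibition versus DMSO and no-SOS blank, 4-parameter IC50 taken at 30 min.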

[2] = target: GST-tagged KRAS-G12V (2-169) (Homo sapiens, UniProt P01116, G12V); assay: Nucleotide exchange assay (NEA), SOS-mediated, HTRF, KRAS G12V; type: biochemical; details: Table 4; IC50 extracted at 90 min; 80 nM SOS
Summary of the method: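 GST-KRAS-G12V (2-169), 0.25 nM, pre-incubated 1 h at RT with compound, then SOS1cat (564-1049) 80 nM and GTP-DY-647P1 150 nM added in HEPES pH 7.3 buffer with MgCl2 and DTT. HTRF via anti-GST Tb cryptate read over 90 min; IC50 from 4-parameter fit at 90 min, blanked to no-SOS reactions.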

Sequence of GST-tagged KRAS-G12V (2-169) (P01116 2-169 isoform P01116-2 G12V): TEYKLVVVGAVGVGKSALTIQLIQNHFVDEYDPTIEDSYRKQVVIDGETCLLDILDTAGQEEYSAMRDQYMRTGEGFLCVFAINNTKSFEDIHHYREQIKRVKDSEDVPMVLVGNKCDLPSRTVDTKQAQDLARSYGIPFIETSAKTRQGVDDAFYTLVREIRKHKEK
Sequence of GST-tagged KRAS-G12D (2-169) (P01116 2-169 isoform P01116-2 G12D): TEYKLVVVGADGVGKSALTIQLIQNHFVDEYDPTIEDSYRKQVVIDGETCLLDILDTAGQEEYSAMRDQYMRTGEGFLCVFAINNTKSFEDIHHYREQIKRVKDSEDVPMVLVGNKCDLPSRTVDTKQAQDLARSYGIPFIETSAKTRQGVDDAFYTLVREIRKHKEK

Row | SMILES | pIC50 [1] | pIC50 [2]
1 | CC(Nc1nc(OC[C@@]23CCCN2C[C@H](F)C3)nc(N2CC3(CCc4sc(N)c(C#N)c43)C2)n1)c1cccnc1N (stereo partly drawn) [Compound 88, 2-amino-1′-[4-[1-(2-amino-3-pyridyl)ethylamino]-6-[[(2R,8S)-2-fluoro-1,2,3,5,6,7-hexahydropyrrolizin-8-yl]methoxy]-1,3,5-triazin-2-yl]spiro[5,6-dihydrocyclopenta[b]thiophene-4,3′-azetidine]-3-carbonitrile] | 6.00 to 7.00 | > 8.00
2 | N#Cc1c(N)sc2c1C1(CC2)CN(c2nc(OC[C@@]34CCCN3C[C@H](F)C4)nc(N3CCC4CC4(CO)C3)n2)C1 (stereo partly drawn) [Compound 41, 2-amino-1′-[4-[[(2R,8S)-2-fluoro-1,2,3,5,6,7-hexahydropyrrolizin-8-yl]methoxy]-6-[1-(hydroxymethyl)-3-azabicyclo[4.1.0]heptan-3-yl]-1,3,5-triazin-2-yl]spiro[5,6-dihydrocyclopenta[b]thiophene-4,3′-azetidine]-3-carbonitrile] | 4.70 to 6.00 | 6.00 to 7.00
3 | CC(c1ccc[n+]([O-])c1)N(C)c1nc(OC[C@@]23CCCN2C[C@H](F)C3)nc(N2CC3(C2)SCc2sc(N)c(C#N)c23)n1 (stereo partly drawn) [Compound 224, 3-(1-((4-(2′-amino-3′-cyano-6′H-spiro[azetidine-3,4′-thieno[3,4-b]thiophen]-1-yl)-6-(((2R,7aS)-2-fluorotetrahydro-1H-pyrrolizin-7a(5H)-yl)methoxy)-1,3,5-triazin-2-yl)(methyl)amino)ethyl)pyridine 1-oxide] | 7.00 to 8.00 | 7.00 to 8.00
4 | N#Cc1c(N)sc2c1C1(CN(c3nc(OC[C@@]45CCCN4C[C@H](F)C5)nc(N(CC4(O)CC4)C4(C#N)CC4)n3)C1)SC2 [Compound 263, 2-amino-1′-[4-[(1-cyanocyclopropyl)-[(1-hydroxycyclopropyl)methyl]amino]-6-[[(2R,8S)-2-fluoro-1,2,3,5,6,7-hexahydropyrrolizin-8-yl]methoxy]-1,3,5-triazin-2-yl]spiro[6H-thieno[3,4-b]thiophene-4,3′-azetidine]-3-carbonitrile] | 7.00 to 8.00 | 7.00 to 8.00
5 | CC(c1cccnc1N)N(C)c1nc(OC[C@@]23CCCN2C[C@H](F)C3)nc(N2CC3(C2)SCc2sc(N)c(C#N)c23)n1 (stereo partly drawn) [Compound 115, 2-amino-1′-[4-[1-(2-amino-3-pyridyl)ethyl-methyl-amino]-6-[[(2R,8S)-2-fluoro-1,2,3,5,6,7-hexahydropyrrolizin-8-yl]methoxy]-1,3,5-triazin-2-yl]spiro[6H-thieno[3,4-b]thiophene-4,3′-azetidine]-3-carbonitrile] | > 8.00 | > 8.00
6 | CCN(c1nc(OC[C@]23CC[C@H](CN(C)C2)N3)nc(N2CC3(C2)SCc2sc(N)c(C#N)c23)n1)[C@H](C)c1cccnc1N [Compound 214, 2′-amino-1-(4-(((R)-1-(2-aminopyridin-3-yl)ethyl)(ethyl)amino)-6-(((1S,5R)-3-methyl-3,8-diazabicyclo[3.2.1]octan-1-yl)methoxy)-1,3,5-triazin-2-yl)-6′H-spiro[azetidine-3,4′-thieno[3,4-b]thiophene]-3′-carbonitrile] | > 8.00 | > 8.00
7 | C[C@H](c1cccnc1N)N(C)c1nc(OC[C@@]23CCCN2C[C@H](F)C3)nc(N2CCC3(CCCc4sc(N)c(C#N)c43)C2=O)n1 (single isomer, unassigned) [Compound 175B, (*)-2-amino-1′-(4-(((R)-1-(2-aminopyridin-3-yl)ethyl)(methyl)amino)-6-(((2R,7aS)-2-fluorotetrahydro-1H-pyrrolizin-7a(5H)-yl)methoxy)-1,3,5-triazin-2-yl)-2′-oxo-6,7-dihydro-5H-spiro[benzo[b]thiophene-4,3′-pyrrolidine]-3-carbonitrile] | 6.00 to 7.00 | > 8.00
8 | CC(c1ccnn1C)N(C)c1nc(OC[C@@]23CCCN2C[C@H](F)C3)nc(N2CC3(CCc4sc(N)c(C#N)c43)C2)n1 (stereo partly drawn) [Compound 125, 2-amino-1′-[4-[[(2R,8S)-2-fluoro-1,2,3,5,6,7-hexahydropyrrolizin-8-yl]methoxy]-6-[methyl-[i-(2-methylpyrazol-3-yl)ethyl]amino]-1,3,5-triazin-2-yl]spiro[5,6-dihydrocyclopenta[b]thiophene-4,3′-azetidine]-3-carbonitrile] | 4.70 to 6.00 | 7.00 to 8.00
9 | N#Cc1c(N)sc2c1C1(CN(c3nc(OC[C@@]45CCCN4C[C@H](F)C5)nc(N(Cc4cccnc4N)C4COC4)n3)C1)SC2 [Compound 217, 2-amino-1′-[4-[(2-amino-3-pyridyl)methyl-(oxetan-3-yl)amino]-6-[[(2R,8S)-2-fluoro-1,2,3,5,6,7-hexahydropyrrolizin-8-yl]methoxy]-1,3,5-triazin-2-yl]spiro[6H-thieno[3,4-b]thiophene-4,3′-azetidine]-3-carbonitrile] | 4.70 to 6.00 | 6.00 to 7.00
10 | CCN(c1nc(OC[C@]2(C(F)F)CCCN2)nc(N2CC3(C2)SCc2sc(N)c(C#N)c23)n1)[C@H](C)c1cccnc1N [Compound 221, 2-amino-1′-[4-[[(1R)-1-(2-amino-3-pyridyl)ethyl]-ethyl-amino]-6-[[(2S)-2-(difluoromethyl)pyrrolidin-2-yl]methoxy]-1,3,5-triazin-2-yl]spiro[6H-thieno[3,4-b]thiophene-4,3′-azetidine]-3-carbonitrile] | > 8.00 | > 8.00
11 | N#Cc1c(N)sc2c1C1(CN(c3nc(OC[C@@]45CCCN4C[C@H](F)C5)nc(N4C5CCC4COC5)n3)C1)SC2 (racemic) [Compound 274, 2-amino-1′-[4-(3-oxa-8-azabicyclo[3.2.1]octan-8-yl)-6-[[rac-(2R,8S)-2-fluoro-1,2,3,5,6,7-hexahydropyrrolizin-8-yl]methoxy]-1,3,5-triazin-2-yl]spiro[6H-thieno[3,4-b]thiophene-4,3′-azetidine]-3-carbonitrile] | 6.00 to 7.00 | 7.00 to 8.00
12 | C[C@@H]1[C@H](C#N)CCCN1c1nc(OC[C@@]23CCCN2C[C@H](F)C3)nc(N2CC3(CCc4sc(N)c(C#N)c43)C2)n1 (racemic) [Compound 29, 2-amino-1′-[4-[rac-(2R,3R)-3-cyano-2-methyl-1-piperidyl]-6-[[(2R,8S)-2-fluoro-1,2,3,5,6,7-hexahydropyrrolizin-8-yl]methoxy]-1,3,5-triazin-2-yl]spiro[5,6-dihydrocyclopenta[b]thiophene-4,3′-azetidine]-3-carbonitrile] | 6.00 to 7.00 | 6.00 to 7.00
13 | C[C@@]1(O)CCCN(c2nc(OCC3(CN4CCOCC4)CC3)nc(N3CCC4(CCCc5sc(N)c(C#N)c54)C3)n2)C1 (stereo partly drawn) [Compound 64, 2-amino-1′-[4-[(3R)-3-hydroxy-3-methyl-1-piperidyl]-6-[[1-(morpholinomethyl)cyclopropyl]methoxy]-1,3,5-triazin-2-yl]spiro[6,7-dihydro-5H-benzothiophene-4,3′-pyrrolidine]-3-carbonitrile] | 4.70 to 6.00 | 4.70 to 6.00
14 | CC(c1nccnc1N)N(C)c1nc(OC[C@@]23CCCN2C[C@H](F)C3)nc(N2CC3(CCc4sc(N)c(C#N)c43)C2)n1 (stereo partly drawn) [Compound 102, 2-amino-1′-[4-[1-(3-aminopyrazin-2-yl)ethyl-methyl-amino]-6-[[(2R,8S)-2-fluoro-1,2,3,5,6,7-hexahydropyrrolizin-8-yl]methoxy]-1,3,5-triazin-2-yl]spiro[5,6-dihydrocyclopenta[b]thiophene-4,3′-azetidine]-3-carbonitrile] | 7.00 to 8.00 | > 8.00
